Literature values in patent US20030118473A1, “Method and apparatus for ozone decontamination of biological liquids” (priority 2001, published 2003).

System: hepatitis C infection
Conditions: preliminary research on hepatitis C infection; ozone therapy

SMILES: O=[O+][O-] [ozone, Ozone]
- effect on hepatic enzymes (SGOT, SGPT, alkaline phosphatase): significantly normalize hepatic enzymes
